The values below come from ChEMBL document CHEMBL5291721, “A preclinical secondary pharmacology resource illuminates target-adverse drug reaction associations of marketed drugs” (Nat Commun, 2023).

The target of experiment [1] is T1, Equilibrative nucleoside transporter 1 (Homo sapiens, UniProt Q99808).
T1 sequence (Q99808 whole entry): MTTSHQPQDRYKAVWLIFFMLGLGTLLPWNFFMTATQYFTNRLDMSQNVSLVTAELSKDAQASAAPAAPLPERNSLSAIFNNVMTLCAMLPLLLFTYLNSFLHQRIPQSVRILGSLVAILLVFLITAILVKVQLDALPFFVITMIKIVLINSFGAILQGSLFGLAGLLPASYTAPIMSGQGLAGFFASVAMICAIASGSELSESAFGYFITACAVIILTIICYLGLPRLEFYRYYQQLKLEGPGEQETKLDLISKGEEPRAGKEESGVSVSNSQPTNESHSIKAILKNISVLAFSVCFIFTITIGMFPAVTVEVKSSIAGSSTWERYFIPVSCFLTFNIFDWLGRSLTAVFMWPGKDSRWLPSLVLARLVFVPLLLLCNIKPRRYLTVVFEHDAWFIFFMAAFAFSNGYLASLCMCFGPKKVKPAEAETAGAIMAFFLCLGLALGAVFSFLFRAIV

Experiment [2] addresses Neuronal acetylcholine receptor subunit alpha-4 (Homo sapiens, UniProt P43681).
In experiment [3] the target is Delta-type opioid receptor (Homo sapiens, UniProt P41143).
Chain of Delta-type opioid receptor (P41143 whole entry): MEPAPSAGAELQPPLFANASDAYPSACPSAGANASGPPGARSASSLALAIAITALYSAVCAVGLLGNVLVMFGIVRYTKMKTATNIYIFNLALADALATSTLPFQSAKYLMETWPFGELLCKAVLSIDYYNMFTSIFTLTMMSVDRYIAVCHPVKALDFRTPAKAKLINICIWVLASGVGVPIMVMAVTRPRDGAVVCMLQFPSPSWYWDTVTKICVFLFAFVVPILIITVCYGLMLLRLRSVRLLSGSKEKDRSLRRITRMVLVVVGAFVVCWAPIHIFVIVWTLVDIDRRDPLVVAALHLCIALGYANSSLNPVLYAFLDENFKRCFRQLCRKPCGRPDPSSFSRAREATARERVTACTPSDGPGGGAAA
For experiment [4], the target named is T2, 5-hydroxytryptamine receptor 3A (Homo sapiens, UniProt P46098).
T2 sequence (P46098 whole entry): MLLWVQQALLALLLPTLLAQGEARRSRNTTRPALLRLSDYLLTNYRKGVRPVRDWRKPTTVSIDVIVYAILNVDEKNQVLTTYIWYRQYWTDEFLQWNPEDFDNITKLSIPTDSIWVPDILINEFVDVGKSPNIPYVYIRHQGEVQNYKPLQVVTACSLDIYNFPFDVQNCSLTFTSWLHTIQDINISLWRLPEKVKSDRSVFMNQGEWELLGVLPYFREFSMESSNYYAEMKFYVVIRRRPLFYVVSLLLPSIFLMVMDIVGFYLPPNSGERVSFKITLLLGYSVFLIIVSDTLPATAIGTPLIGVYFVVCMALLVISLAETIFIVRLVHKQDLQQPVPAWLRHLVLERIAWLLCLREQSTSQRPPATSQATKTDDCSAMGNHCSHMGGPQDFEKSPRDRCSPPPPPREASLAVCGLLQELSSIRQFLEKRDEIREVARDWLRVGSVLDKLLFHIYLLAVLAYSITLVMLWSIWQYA
It is filed as functional.

In the next experiment the target is T3, Adenosine receptor A1 (Homo sapiens, UniProt P30542).
T3 sequence (P30542 whole entry): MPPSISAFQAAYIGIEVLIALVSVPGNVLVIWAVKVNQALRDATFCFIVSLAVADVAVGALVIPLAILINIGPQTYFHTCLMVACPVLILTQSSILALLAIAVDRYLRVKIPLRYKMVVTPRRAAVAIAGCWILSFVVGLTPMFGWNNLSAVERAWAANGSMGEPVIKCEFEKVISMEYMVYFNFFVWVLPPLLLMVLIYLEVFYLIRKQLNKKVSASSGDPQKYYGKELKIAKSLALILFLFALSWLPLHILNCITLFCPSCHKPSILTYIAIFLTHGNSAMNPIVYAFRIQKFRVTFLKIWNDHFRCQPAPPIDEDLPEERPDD

For experiment [5], the target named is T4, Type-1 angiotensin II receptor (Homo sapiens, UniProt P30556).
T4 sequence (P30556 whole entry): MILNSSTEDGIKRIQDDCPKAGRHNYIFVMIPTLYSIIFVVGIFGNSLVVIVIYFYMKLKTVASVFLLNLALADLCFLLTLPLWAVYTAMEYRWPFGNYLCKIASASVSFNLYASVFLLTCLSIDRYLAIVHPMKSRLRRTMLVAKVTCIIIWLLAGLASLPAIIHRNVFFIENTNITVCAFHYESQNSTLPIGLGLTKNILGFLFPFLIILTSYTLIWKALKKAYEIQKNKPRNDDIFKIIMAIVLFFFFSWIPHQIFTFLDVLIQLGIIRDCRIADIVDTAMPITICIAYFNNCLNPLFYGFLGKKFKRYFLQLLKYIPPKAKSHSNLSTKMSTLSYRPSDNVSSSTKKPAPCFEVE

Experiment [6] addresses 5-hydroxytryptamine receptor 2A (Homo sapiens, UniProt P28223). Type of experiment: functional, cell-based.
Another experiment concerns the target Histamine H1 receptor (Homo sapiens, UniProt P35367).
Experiment [7] addresses T5, Cholecystokinin receptor type A (Homo sapiens, UniProt P32238).
T5 sequence (P32238 whole entry): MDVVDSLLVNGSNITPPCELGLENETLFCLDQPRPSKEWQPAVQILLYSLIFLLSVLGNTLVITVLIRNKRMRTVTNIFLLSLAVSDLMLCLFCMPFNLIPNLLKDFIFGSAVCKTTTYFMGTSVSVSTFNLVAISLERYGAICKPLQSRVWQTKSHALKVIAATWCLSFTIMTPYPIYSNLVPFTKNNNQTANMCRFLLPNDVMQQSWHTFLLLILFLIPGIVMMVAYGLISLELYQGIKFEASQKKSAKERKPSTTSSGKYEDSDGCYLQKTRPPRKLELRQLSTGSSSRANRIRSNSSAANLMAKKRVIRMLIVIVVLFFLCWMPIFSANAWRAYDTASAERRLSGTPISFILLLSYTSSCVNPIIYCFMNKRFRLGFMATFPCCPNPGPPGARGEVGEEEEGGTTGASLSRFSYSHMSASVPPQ

Experiment [8] addresses T6, Muscarinic acetylcholine receptor M2 (Homo sapiens, UniProt P08172).
T6 sequence (P08172 whole entry): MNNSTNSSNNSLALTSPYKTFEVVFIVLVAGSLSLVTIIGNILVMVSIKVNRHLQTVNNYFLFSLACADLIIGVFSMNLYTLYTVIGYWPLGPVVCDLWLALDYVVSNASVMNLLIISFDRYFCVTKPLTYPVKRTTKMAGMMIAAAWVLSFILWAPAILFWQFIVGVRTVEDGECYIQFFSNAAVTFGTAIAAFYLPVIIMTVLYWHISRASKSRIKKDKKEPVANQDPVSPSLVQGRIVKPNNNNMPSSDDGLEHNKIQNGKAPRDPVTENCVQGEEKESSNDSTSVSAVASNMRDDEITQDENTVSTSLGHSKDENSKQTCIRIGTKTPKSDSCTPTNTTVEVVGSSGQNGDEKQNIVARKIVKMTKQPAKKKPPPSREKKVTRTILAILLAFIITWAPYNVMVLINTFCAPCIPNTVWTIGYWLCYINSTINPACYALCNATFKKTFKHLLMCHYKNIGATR
Type of experiment: functional, cell-based.
Note: assay procedure not described here.

Chain of Histamine H1 receptor (P35367 whole entry): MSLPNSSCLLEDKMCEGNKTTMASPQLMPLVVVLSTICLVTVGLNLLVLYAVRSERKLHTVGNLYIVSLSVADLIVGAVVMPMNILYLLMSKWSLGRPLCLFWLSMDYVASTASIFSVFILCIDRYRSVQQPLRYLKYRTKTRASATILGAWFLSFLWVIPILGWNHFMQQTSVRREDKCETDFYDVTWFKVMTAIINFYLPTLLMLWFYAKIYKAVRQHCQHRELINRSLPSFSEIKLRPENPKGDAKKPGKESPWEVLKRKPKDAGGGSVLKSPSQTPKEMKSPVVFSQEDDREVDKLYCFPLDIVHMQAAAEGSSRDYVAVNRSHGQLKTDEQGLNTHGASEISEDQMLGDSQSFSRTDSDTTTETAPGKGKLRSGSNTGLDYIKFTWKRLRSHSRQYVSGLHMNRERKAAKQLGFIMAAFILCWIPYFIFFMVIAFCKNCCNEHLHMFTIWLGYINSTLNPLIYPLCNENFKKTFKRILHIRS
Chain of Neuronal acetylcholine receptor subunit alpha-4 (P43681 whole entry): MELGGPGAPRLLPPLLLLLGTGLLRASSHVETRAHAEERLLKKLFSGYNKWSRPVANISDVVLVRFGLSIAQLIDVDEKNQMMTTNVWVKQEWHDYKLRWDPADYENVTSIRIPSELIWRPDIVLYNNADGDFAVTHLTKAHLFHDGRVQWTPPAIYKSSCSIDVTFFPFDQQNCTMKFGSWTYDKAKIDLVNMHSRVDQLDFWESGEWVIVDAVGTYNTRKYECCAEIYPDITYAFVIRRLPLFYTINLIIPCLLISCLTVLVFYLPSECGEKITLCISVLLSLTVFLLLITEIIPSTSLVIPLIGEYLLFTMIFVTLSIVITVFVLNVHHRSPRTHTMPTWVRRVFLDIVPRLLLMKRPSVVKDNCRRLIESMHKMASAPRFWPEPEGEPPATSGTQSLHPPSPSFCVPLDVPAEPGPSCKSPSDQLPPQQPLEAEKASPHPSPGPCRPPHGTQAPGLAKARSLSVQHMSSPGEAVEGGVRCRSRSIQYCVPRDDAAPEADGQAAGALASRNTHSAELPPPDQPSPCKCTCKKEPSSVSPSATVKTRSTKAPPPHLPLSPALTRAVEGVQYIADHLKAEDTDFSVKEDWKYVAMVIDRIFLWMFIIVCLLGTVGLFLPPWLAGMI
Chain of 5-hydroxytryptamine receptor 2A (P28223 whole entry): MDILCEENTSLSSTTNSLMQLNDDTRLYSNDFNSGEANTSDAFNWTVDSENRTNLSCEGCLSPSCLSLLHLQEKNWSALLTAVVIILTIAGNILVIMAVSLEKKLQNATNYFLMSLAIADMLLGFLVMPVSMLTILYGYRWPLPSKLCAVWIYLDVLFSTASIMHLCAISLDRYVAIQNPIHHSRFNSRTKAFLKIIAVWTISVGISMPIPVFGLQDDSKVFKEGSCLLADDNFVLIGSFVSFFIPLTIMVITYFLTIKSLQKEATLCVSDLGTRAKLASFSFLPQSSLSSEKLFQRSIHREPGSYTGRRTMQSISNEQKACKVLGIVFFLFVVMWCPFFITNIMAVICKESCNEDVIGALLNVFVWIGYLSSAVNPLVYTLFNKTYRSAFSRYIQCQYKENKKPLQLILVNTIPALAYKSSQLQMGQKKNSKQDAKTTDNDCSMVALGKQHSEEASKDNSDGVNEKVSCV

In the case of `COc1ccc(-c2ccc3cc(C(=O)O)ccc3c2)cc1C12CC3CC(CC(C3)C1)C2`, the AC50 (in experiment [1]; in [2]; in experiment [3]; in [4]; at Adenosine receptor A1; in experiment [5]) was over 30 µM throughout. Also, the AC50 (in experiment [6]; on Histamine H1 receptor; in experiment [7]; in experiment [8]) was over 30 µM each time.

In the case of `COc1ccccc1N1CCN(CCCNc2cc(=O)n(C)c(=O)n2C)CC1`, the AC50 (in experiment [1]; in experiment [2]; in experiment [3]; in [4]; at Adenosine receptor A1; in experiment [5]) was over 30 µM each time. The concentration at half-maximal activity (AC50) in experiment [6] is over 30 µM; at Histamine H1 receptor it was 4.3 µM; in experiment [7], over 30 µM; in experiment [8], over 30 µM.

Regarding `CCOC(=O)[C@H](CCc1ccccc1)N[C@@H](C)C(=O)N1C(=O)N(C)C[C@H]1C(=O)O`, the AC50 (in experiment [1]; in experiment [2]; in experiment [3]; in experiment [4]; at Adenosine receptor A1; in experiment [5]) was over 30 µM throughout. Moreover, the AC50 (in experiment [6]; on Histamine H1 receptor; in experiment [7]; in experiment [8]) was over 30 µM each time.

Regarding `CC(=O)O[C@H]1CC[C@@]2(C)C(=CC[C@@H]3[C@@H]2CC[C@]2(C)C(c4cccnc4)=CC[C@@H]32)C1` [ABIRATERONE ACETATE], the concentration at half-maximal activity (AC50) (in [1]; in experiment [2]; in [3]; in experiment [4]; on Adenosine receptor A1; in experiment [5]) was over 30 µM in each case. The concentration at half-maximal activity (AC50) (in [6]; on Histamine H1 receptor; in experiment [7]; in experiment [8]) was over 30 µM each time.

For `O=C(O)CCCCCCNC1c2ccccc2CCc2ccccc21` [AMINEPTINE], the half-maximal activity concentration (AC50) (in [1]; in experiment [2]; in [3]; in [4]; at Adenosine receptor A1; in experiment [5]) was over 30 µM each time. The AC50 (in experiment [6]; at Histamine H1 receptor; in experiment [7]; in experiment [8]) was over 30 µM in each case.

On to `COc1ccccc1OCCNCC(O)c1ccc(C)c(S(N)(=O)=O)c1` (centres undefined) [AMOSULALOL], for which the half-maximal activity concentration (AC50) (in experiment [1]; in [2]; in experiment [3]; in experiment [4]; at Adenosine receptor A1; in [5]) was over 30 µM each time. Moreover, the concentration at half-maximal activity (AC50) is over 30 µM in [6], 16 µM on Histamine H1 receptor, over 30 µM in experiment [7] and over 30 µM in experiment [8].

Take `O=C(O)CCCCCCCC(=O)O` [AZELAIC ACID]: the concentration at half-maximal activity (AC50) in [1] is over 10 µM; in experiment [2], over 10 µM; in [3] it was over 30 µM; in experiment [4] it was over 30 µM; at Adenosine receptor A1 it was over 10 µM; in experiment [5] it was over 10 µM. For the same molecule, the half-maximal activity concentration (AC50) (in experiment [6]; on Histamine H1 receptor; in experiment [7]; in experiment [8]) was over 10 µM throughout.

For `CO/N=C(\C(=O)N[C@@H]1C(=O)N2C(C(=O)O)=C(CSc3nnnn3C)CS[C@H]12)c1csc(N)n1` [CEFMENOXIME], the AC50 (in experiment [1]; in experiment [2]; on Adenosine receptor A1; in experiment [5]; in experiment [6]; at Histamine H1 receptor) was over 30 µM throughout. For the same molecule, the AC50 in experiment [7] and in [8] was over 30 µM throughout.

As to `CCCCCCOc1ccccc1C(N)=O` [EXALAMIDE], the AC50 (in experiment [1]; in experiment [2]; in experiment [3]; in experiment [4]; at Adenosine receptor A1; in experiment [5]) was over 30 µM each time. Also, the concentration at half-maximal activity (AC50) (in experiment [6]; at Histamine H1 receptor; in experiment [7]) was over 30 µM in each case.

For the molecule `CN1C(=O)C(O)N=C(c2ccccc2Cl)c2cc(Cl)ccc21` (centres undefined) [LORMETAZEPAM], the AC50 (in experiment [1]; in experiment [2]; in experiment [3]; in experiment [4]; at Adenosine receptor A1; in experiment [5]) was over 30 µM throughout. For the same molecule, the half-maximal activity concentration (AC50) (in experiment [6]; at Histamine H1 receptor; in experiment [7]) was over 30 µM throughout.

`COc1ccc2c3c1O[C@H]1C(=O)CC[C@@]4(O)[C@@H](C2)N(C)CC[C@]314` [OXYCODONE]: the half-maximal activity concentration (AC50) (in experiment [1]; in [2]; in experiment [4]; on Adenosine receptor A1; in experiment [5]; in experiment [6]) was over 30 µM in each case. The AC50 (on Histamine H1 receptor; in experiment [7]; in experiment [8]) was over 30 µM in each case.

Regarding `CC[C@@H]1C(=O)OC[C@@H]1Cc1cncn1C` [PILOCARPINE], the AC50 is over 30 µM in [1]; over 10 µM in experiment [2]; over 30 µM in [3]; over 30 µM in experiment [4]; over 30 µM at Adenosine receptor A1; over 30 µM in experiment [5]. The AC50 in experiment [6] was over 30 µM; on Histamine H1 receptor, over 10 µM; in experiment [7], over 30 µM.
